IC50 data for 36 compounds are collected here from ChEMBL document CHEMBL1932965, “Synthesis and SAR of inhibitors of protein kinase CK2: novel tricyclic quinoline analogs” (Bioorg Med Chem Lett, 2012).

In this assay the target is Casein kinase II alpha/beta (Homo sapiens, UniProt P68400). Nature of the assay: Inhibition of human recombinant CK2alpha/CK2beta using RRRDDDSDDD peptide as substrate by radiometric assay. It counts as protein-complex assay.
Sequence of Casein kinase II alpha/beta (P68400 whole entry, looked up): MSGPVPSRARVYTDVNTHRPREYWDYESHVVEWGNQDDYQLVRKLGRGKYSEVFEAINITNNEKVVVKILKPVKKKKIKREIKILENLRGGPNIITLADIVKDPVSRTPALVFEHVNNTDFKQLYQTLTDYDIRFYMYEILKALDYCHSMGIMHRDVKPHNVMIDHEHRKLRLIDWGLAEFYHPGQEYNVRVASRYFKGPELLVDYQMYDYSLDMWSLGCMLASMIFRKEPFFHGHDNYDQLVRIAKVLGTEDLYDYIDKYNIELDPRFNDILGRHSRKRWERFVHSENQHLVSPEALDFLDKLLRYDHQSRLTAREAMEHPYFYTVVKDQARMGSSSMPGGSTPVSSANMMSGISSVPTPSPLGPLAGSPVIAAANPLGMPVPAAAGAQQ

Turning to `CONC(=O)c1ccc2c(c1)nc(-c1ccc(Cl)cc1)c1ccncc12`, the 50% inhibitory concentration (IC50) stood at 444 nM. The same measure for `O=C(O)c1ccc2c(c1)nc(-c1ccncc1)c1ccncc12`: 35 nM; for `O=C(O)c1ccc2c(c1)nc(Cc1cccc(Cl)c1)c1ccncc12`: 2.1 nM. As for `NS(=O)(=O)c1cccc(-c2nc3cc(C(=O)O)ccc3c3cnccc23)c1`, the figure is 11 nM; as for `O=C(O)c1ccc2c(c1)nc(-c1ccccc1)c1nc(NC3CC3)ncc12`, 0.6 nM; as for `O=C(O)c1ccc2c(c1)nc(-c1ccc(Cl)s1)c1ccncc12`, 0.4 nM. The same measure for `O=C(O)c1ccc2c(c1)nc(-c1cccc(F)c1)c1ccncc12`: 1.3 nM; for `O=C(O)c1ccc2c(c1)nc(-c1ccccc1)c1ccncc12`: 1.1 nM; for `NC(=O)c1ccc2c(c1)nc(-c1ccc(Cl)cc1)c1ccncc12`: 30 nM. Take `O=C(O)c1ccc2c(c1)nc(-c1cccc(Cl)c1)c1ccncc12`: the half-maximal inhibitory concentration (IC50) was 2.9 nM. On to `O=C(O)c1ccc2c(c1)nc(-c1ccccc1F)c1ccncc12`, for which the IC50 came to 15 nM.

Turning to `O=C(O)c1ccc2c(c1)nc(-c1cccc(O)c1)c1ncncc12`, the concentration for half-maximal inhibition (IC50) came to 3.5 nM. The same measure for `O=C(O)c1ccc2nc(-c3ccc(Cl)cc3)c3ccncc3c2c1`: 164 nM; for `O=C(O)c1ccc2c(c1)nc(-c1cccc(O)c1)c1ccncc12`: 1 nM.

As to `O=C(O)c1ccc2c(c1)nc(-c1ccsc1)c1ccncc12`, the IC50 turned out to be 0.5 nM. The same measure for `NC(=O)c1cccc(-c2nc3cc(C(=O)O)ccc3c3cncnc23)c1`: 17 nM. The same measure for `O=C(O)c1ccc2c(c1)nc(-c1ccc(F)cc1)c1ccncc12`: 1.2 nM. Regarding `O=C(O)c1ccc2c(c1)nc(-c1ccc(Cl)cc1)c1ccncc12`, the concentration for half-maximal inhibition (IC50) was determined as 0.5 nM. Regarding `COC(=O)c1ccc2c(c1)nc(-c1ccc(Cl)cc1)c1ccncc12`, the IC50 amounted to 395 nM. In the case of `NC(=O)c1cccc(-c2nc3cc(C(=O)O)ccc3c3cnccc23)c1`, the concentration for half-maximal inhibition (IC50) was 3.5 nM. For `Cc1ccccc1-c1nc2cc(C(=O)O)ccc2c2cnccc12`, the IC50 is 20 nM. The same measure for `O=C(O)c1ccc2c(c1)nc(Oc1cccc(Cl)c1)c1ccncc12`: 3.7 nM; for `CS(=O)(=O)c1cccc(-c2nc3cc(C(=O)O)ccc3c3cnccc23)c1`: 13 nM.

In the case of `COc1cccc(-c2nc3cc(C(=O)O)ccc3c3cnccc23)c1`, the IC50 was 34 nM. On to `O=C(O)c1ccc2c(c1)nc(-c1cccnc1)c1ccncc12`, for which the IC50 is over 2500 nM. Turning to `Cc1cscc1-c1nc2cc(C(=O)O)ccc2c2cnccc12`, the IC50 was found to be 4.2 nM. The same measure for `O=C(O)c1ccc2c(c1)nc(-c1cccc(OC(F)(F)F)c1)c1ccncc12`: 5.7 nM. Regarding `CCNc1ncc2c(n1)c(-c1ccc(Cl)cc1)nc1cc(C(=O)O)ccc12`, the IC50 was found to be 0.5 nM. The same measure for `Nc1cccc(-c2nc3cc(C(=O)O)ccc3c3cnccc23)c1`: 2.7 nM. The same measure for `N#Cc1ccc2c(c1)nc(-c1ccc(Cl)cc1)c1ccncc12`: over 2500 nM; for `O=C(O)c1ccc2c(c1)nc(-c1ccccc1OC(F)(F)F)c1ccncc12`: 39 nM; for `O=C(O)c1ccc2c(c1)nc(Sc1cccc(Cl)c1)c1ccncc12`: 1 nM. As for `O=C(O)c1ccc2c(c1)nc(-c1ccc(Cl)cc1)c1ncncc12`, the figure is 12 nM; as for `CN(c1cccc(Cl)c1)c1nc2cc(C(=O)O)ccc2c2cnccc12`, 8.9 nM; as for `Clc1ccc(-c2nc3cc(-c4nnn[nH]4)ccc3c3cnccc23)cc1`, 20 nM. Take `O=C(O)c1cccc2c1nc(-c1ccc(Cl)cc1)c1ccncc12`: the IC50 was 2030 nM.

The IC50 is the concentration at which inhibition is half-maximal.
